{"source": "paper PMC7595202", "about": "“Indole hydrazide compound ZJQ-24 inhibits angiogenesis and induces apoptosis cell death through abrogation of AKT/mTOR pathway in hepatocellular carcinoma” (Cell Death & Disease, 2020)", "target": "mTOR (Homo sapiens, UniProt P42345)", "test": "in vitro kinase activity assay at ATP near Km; also anti-Raptor immunoprecipitated mTORC1 kinase assay (HepG2/HUH-7) with GST-S6K1 substrate", "type": "biochemical", "data": [{"compound": "COc1ccc(C=NNC(=O)c2cc3cc(Cl)ccc3[nH]2)c(OC)c1", "note": "[ZJQ-24, 5-chloro-N’-(2,4-dimethoxybenzylidene)−1H-indole-2-carbohydrazide]", "values": [{"measurement": "EC50", "result": 40.6, "unit": "µM"}]}]}
